Source: ChEMBL document CHEMBL1201862, “PubChem BioAssay data set” (2004)
The source made the active and inactive calls.

Legend:
[1] = biological target: T1, Eukaryotic translation initiation factor 2-alpha kinase 3 (Homo sapiens, UniProt Q9NZJ5); test: Counterscreen assay for PERK inhibitors: Dose response cell-based high throughput screening assay to measure inhibition of PERK at 6 hours. [Related pubchem assays: 1522, 1416 ]; type: functional
T1 sequence (Q9NZJ5 whole entry): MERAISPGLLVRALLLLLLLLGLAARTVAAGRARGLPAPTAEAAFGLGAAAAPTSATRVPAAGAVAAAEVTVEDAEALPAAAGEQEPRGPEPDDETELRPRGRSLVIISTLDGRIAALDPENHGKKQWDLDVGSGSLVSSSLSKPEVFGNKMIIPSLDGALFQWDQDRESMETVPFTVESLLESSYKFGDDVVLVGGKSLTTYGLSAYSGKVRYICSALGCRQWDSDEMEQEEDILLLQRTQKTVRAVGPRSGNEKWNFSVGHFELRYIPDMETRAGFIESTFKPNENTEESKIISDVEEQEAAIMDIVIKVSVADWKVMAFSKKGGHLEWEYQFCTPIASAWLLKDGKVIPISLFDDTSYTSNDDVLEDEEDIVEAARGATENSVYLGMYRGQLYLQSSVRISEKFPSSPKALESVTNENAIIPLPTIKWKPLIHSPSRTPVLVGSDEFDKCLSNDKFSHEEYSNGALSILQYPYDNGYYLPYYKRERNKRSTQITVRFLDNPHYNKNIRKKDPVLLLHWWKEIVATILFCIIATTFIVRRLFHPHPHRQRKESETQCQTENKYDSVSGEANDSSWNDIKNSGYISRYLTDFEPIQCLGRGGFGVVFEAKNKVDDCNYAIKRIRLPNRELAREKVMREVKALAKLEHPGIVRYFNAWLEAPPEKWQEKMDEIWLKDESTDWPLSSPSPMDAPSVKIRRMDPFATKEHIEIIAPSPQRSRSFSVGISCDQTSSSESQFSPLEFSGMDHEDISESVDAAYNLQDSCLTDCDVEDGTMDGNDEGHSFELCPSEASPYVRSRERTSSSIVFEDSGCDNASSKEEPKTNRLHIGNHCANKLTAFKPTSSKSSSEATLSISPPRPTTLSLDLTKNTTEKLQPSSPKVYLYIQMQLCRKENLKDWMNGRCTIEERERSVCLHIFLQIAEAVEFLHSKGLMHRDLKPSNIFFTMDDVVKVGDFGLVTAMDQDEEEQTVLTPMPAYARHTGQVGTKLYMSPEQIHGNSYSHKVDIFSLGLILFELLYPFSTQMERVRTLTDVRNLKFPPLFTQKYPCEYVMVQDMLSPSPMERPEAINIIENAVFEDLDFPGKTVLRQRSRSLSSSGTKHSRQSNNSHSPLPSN

[2] = biological target: T1, Eukaryotic translation initiation factor 2-alpha kinase 3; test: Dose response cell-based high-throughput screening assay to measure PERK inhibition. [Related pubchem assays: 1416 ]; type: functional
[3] = biological target: T2, Neuropeptides B/W receptor type 1 (Homo sapiens, UniProt P48145); test: Fluorescence-based dose response cell-based high throughput screening assay to identify antagonists of the G-protein coupled receptor 7 (GPR7). [Related pubchem assays: 1952 (Screening assay (GPR7 antagonists).), 1880 (Summary AID.)]; type: functional
T2 sequence (P48145 whole entry): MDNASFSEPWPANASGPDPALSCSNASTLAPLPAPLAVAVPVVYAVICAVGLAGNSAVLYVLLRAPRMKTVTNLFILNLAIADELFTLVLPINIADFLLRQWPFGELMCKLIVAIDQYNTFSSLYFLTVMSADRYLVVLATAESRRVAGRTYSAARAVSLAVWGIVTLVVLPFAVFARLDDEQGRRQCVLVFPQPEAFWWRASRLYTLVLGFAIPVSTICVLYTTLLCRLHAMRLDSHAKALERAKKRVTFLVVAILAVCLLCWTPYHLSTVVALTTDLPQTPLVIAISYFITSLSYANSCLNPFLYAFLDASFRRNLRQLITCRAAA

[4] = biological target: Melanin-concentrating hormone receptor 1 (Homo sapiens, UniProt Q99705); test: Fluorescence-based counterscreen for antagonists of the G-protein coupled receptor 7 (GPR7): cell-based high throughput dose response assay to identify antagonists of the melanin-concentrating hormone receptor 1 (MCHR1).; type: functional
Melanin-concentrating hormone receptor 1, sequence (Q99705 whole entry): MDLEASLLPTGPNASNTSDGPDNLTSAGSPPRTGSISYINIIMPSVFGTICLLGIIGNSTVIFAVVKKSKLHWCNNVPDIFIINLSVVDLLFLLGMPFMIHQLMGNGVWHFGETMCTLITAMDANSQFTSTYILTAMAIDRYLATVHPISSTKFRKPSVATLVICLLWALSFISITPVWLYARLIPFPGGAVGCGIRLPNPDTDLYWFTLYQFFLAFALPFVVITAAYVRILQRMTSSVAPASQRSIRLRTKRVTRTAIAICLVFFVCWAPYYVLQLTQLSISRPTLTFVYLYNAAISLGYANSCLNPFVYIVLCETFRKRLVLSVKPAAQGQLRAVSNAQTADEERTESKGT

Hexokinase = Hexokinase (Trypanosoma brucei, UniProt Q38C41); test: Confirmation assay for inhibitors of Trypanosoma brucei hexokinase 1-Analogue-first series. [Related pubchem assays (depositor defined):AID1430, AID1632, AID2516, AID2560, AID2579, AID2600, AID449725, AID492951]; type: functional
Hexokinase, sequence (Q38C41 whole entry): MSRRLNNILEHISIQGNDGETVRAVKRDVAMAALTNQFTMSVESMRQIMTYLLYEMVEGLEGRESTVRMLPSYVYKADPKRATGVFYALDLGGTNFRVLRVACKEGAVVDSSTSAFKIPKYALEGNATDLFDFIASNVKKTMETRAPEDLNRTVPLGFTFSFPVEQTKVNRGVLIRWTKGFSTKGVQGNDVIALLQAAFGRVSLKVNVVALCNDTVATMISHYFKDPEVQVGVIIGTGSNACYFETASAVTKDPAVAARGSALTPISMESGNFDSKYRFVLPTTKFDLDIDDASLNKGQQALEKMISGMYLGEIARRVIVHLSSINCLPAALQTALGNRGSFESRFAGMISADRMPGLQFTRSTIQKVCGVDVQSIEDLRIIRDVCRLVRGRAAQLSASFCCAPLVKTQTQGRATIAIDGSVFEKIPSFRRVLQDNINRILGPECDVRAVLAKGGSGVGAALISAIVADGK

Streptokinase A = biological target: T3, Streptokinase A (Streptococcus pyogenes serotype M1, UniProt P10520); test: S. pyogenes streptokinase expression inhibitors, potency, dose response, plasminogen activation absorbance, OD405 (AID 1914); type: functional, Streptococcus pyogenes M1 GAS;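 note: secreted streptokinase activity via plasminogen activation per viability signal from cell pellet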
T3 sequence (P10520 whole entry): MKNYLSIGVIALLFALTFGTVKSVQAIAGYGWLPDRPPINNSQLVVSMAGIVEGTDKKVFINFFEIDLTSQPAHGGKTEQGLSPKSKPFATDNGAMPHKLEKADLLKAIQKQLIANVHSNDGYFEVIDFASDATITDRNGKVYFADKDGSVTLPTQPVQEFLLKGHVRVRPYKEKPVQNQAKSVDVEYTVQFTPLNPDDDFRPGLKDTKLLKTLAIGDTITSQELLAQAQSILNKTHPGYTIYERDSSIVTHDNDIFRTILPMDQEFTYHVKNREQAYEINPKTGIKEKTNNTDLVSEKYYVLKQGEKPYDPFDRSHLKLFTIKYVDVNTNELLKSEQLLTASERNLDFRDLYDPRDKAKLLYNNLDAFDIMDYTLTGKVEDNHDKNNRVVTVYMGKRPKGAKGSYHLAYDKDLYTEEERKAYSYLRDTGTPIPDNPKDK

[5] = biological target: Neurotensin receptor type 1 (Homo sapiens, UniProt P30989); type: functional;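 note: Image-based confirmatory dose-response assay measuring agonist activity at NTR1; NTR1-expressing U2OS osteosarcoma cells imaged for beta-arrestin GFP spot formation; agonist potency where compounds increase beta-arrestin recruitment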
Neurotensin receptor type 1, sequence (P30989 whole entry): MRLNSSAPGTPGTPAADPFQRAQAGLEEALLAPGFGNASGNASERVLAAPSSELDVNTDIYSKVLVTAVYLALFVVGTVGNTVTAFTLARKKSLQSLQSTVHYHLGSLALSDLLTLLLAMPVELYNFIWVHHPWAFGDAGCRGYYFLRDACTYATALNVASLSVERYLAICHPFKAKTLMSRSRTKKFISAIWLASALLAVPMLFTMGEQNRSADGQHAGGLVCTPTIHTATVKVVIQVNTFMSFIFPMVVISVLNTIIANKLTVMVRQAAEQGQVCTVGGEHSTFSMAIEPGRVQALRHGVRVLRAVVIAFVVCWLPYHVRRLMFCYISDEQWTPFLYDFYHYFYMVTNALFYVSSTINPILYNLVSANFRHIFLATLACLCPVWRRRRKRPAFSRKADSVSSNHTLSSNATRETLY

[6] = Luminescence Cell-Based Dose Retest to Confirm Inhibitors of Cancer Stem Cells. [Related pubchem assays (depositor defined):AID2717, AID2721]; type: functional; conditions: Homo sapiens
Streptococcus = test: Group A Streptococcus viability loss, dose response, counter-screen for streptokinase expression inhibitor project, luminescence, BacTiterGlo (AID 1915); type: functional, organism-based;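 note: potency for reduction of bacterial viability or growth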
[7] = test system: Streptococcus sp. 'group A'; test: growth inhibition of control SK(-) GAS strain, dose response, counter-screen for streptokinase expression inhibitor project, luminescence, kanamycin, BacTiterGlo, confirmation (AID 1900); type: functional, organism-based
HeLa = test: HeLa cell cytotoxicity, dose response, cytotoxicity control, 24 h, cherry-picked samples (AID 504726); type: functional, cell-based; conditions: Homo sapiens;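 note: potency for cytotoxicity as loss of luminescence signal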
[8] = biological target: T4, Voltage-gated N-type calcium channel alpha-1B subunit/Amyloid beta A4 precursor protein-binding family A member 1 (Homo sapiens, UniProt Q00975+Q02410); type: protein assay
T4 sequence (Q00975 whole entry): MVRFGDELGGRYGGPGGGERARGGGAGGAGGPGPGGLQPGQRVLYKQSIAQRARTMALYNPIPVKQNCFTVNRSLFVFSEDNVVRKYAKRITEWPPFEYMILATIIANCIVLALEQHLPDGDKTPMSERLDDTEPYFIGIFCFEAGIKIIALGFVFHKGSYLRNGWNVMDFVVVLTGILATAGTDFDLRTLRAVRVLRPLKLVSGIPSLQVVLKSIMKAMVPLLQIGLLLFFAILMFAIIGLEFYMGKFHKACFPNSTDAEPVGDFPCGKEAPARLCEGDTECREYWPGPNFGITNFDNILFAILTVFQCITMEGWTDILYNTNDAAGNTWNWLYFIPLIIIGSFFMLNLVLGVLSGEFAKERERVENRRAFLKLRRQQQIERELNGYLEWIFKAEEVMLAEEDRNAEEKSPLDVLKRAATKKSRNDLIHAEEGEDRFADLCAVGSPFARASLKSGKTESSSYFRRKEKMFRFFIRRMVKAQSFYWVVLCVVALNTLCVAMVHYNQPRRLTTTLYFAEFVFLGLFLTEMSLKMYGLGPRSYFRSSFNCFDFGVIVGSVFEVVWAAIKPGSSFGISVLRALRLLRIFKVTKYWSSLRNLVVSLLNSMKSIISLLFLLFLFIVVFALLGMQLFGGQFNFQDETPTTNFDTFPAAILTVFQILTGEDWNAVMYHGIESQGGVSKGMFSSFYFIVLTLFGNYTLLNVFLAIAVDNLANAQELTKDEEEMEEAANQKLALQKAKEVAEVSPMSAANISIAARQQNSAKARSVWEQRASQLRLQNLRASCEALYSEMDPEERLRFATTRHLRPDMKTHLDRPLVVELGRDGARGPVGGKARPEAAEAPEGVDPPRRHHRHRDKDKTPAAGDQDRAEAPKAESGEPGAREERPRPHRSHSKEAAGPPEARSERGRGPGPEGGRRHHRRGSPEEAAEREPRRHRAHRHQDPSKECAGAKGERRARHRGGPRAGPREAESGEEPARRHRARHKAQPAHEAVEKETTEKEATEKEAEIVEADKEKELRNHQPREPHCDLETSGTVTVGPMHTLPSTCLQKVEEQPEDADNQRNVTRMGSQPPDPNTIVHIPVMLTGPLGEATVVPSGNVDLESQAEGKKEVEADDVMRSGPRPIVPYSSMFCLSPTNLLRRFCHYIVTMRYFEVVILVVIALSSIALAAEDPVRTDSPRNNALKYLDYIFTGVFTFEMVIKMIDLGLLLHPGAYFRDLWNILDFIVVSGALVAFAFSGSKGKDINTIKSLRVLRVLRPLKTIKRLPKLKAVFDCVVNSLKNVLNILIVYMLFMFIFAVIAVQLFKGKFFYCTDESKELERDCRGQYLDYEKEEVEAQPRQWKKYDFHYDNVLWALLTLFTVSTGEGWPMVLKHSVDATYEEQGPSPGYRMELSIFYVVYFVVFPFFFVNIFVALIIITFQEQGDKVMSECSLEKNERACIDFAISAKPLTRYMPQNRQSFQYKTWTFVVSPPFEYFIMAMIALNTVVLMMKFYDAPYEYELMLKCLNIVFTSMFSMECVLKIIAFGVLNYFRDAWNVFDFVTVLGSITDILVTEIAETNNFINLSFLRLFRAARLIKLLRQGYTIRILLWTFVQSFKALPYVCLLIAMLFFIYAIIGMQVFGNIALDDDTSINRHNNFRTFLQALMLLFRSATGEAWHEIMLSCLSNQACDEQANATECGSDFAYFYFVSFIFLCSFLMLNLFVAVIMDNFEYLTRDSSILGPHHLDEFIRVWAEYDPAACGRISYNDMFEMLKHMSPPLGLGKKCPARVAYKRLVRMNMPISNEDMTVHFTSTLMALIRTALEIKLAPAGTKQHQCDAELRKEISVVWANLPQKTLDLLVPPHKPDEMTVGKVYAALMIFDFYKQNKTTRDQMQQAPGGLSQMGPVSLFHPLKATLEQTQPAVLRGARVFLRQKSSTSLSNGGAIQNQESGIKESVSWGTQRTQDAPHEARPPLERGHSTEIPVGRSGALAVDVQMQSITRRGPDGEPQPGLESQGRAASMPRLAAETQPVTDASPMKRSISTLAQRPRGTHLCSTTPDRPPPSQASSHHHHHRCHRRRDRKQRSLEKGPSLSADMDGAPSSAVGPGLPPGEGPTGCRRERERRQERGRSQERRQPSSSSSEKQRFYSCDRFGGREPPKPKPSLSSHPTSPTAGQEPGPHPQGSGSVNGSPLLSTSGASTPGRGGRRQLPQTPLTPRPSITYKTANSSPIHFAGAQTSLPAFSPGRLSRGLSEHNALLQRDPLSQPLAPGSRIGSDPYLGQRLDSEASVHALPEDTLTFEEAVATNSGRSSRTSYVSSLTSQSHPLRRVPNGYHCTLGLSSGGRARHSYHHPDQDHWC
T4 sequence (Q02410 whole entry): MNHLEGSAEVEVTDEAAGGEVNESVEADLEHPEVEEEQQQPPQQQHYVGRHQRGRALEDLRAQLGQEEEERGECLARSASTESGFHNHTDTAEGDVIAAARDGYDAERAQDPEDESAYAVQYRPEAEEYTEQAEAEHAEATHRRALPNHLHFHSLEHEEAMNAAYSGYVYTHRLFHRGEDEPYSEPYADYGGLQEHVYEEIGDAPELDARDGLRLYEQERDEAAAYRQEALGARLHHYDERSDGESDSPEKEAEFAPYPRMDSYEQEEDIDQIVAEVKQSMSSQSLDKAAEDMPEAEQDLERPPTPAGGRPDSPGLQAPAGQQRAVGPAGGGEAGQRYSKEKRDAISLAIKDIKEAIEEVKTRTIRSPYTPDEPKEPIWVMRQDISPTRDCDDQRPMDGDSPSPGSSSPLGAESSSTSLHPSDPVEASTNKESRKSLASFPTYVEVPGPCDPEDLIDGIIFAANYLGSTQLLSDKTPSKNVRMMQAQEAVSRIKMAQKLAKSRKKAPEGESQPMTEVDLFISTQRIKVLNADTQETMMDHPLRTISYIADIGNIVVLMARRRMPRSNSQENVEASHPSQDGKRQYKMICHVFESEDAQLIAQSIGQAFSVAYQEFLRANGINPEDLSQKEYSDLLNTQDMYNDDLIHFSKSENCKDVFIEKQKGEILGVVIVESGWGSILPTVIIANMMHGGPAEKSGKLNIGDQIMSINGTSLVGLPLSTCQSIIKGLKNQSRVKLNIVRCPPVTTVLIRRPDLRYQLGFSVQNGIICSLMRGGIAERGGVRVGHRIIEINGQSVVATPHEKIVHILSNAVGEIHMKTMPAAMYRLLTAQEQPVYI

[9] = biological target: T4, Voltage-gated N-type calcium channel alpha-1B subunit/Amyloid beta A4 precursor protein-binding family A member 1; type: protein assay; remark: listed apart in the source
[10] = cytotoxicity in HPDE-C7 cells, cell-based, fluorescence, HTS (AID 430); type: functional; conditions: Homo sapiens
[11] = cytotoxicity in HEK-293T cells, dose response, cytotoxicity control for TCR NF-kB inhibitor project, luminescence, T-cell screen hits (AID 489026); type: functional, cell-based;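 note: cells exposed to compound about 14 hours before the viability readout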
[12] = HepG2 cell cytotoxicity, dose response, cytotoxicity control, plate reader, cherry-pick, antagonist series (AID 743416); type: functional, cell-based
[13] = MC4R antagonists, dose response, counter-screen for LGR2 antagonist project, cell-based, plate reader, cherry pick (AID 743444); type: functional;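 note: transfected HEK 293 cells stimulated with alpha-MSH peptide; potency of inhibitors of the alpha-MSH evoked signal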
[14] = off-target signal loss in HeLa-CEM21 co-culture – HeLa F-luc CTL cells, cherry-picked, counter-screen for HIV-1 Env fusion inhibitor project, dose response (AID 652040); type: functional, cell-based;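 note: potency for signal decrease marking cytotoxic or nonspecific inhibition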
[15] = HEK293 cell cytotoxicity, dose response, cytotoxicity control, plate reader, cherry-picked samples (AID 743446); type: functional, cell-based
[16] = cytotoxicity in KRAS-transformed pancreatic duct cells, primary screen, cell-based, fluorescence, HTS (AID 431); type: functional; conditions: Homo sapiens;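 note: cell line used: HPDE-C7K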
[17] = CEM21 lymphoblast cell cytotoxicity, dose response, cytotoxicity control for viral fusion inhibitor project, CellTiter-Glo luminescence, cherry-picked (AID 652042); type: functional, cell-based;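 note: potency for signal decrease meaning cytotoxicity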
[18] = LGR2 antagonists, dose response, cell-based, HEK293, CRE-luciferase reporter, cherry pick, set 2 (AID 743343); type: functional;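 note: transfected cells were stimulated with diluted bursicon conditioned medium after compound addition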
[19] = biological target: DNA dC->dU-editing enzyme APOBEC-3G (Homo sapiens, UniProt Q9HC16); type: functional;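 note: Dose-response counterscreen measuring inhibition of APOBEC3G DNA deaminase activity, run while confirming APOBEC3A inhibitors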
DNA dC->dU-editing enzyme APOBEC-3G, sequence (Q9HC16 whole entry): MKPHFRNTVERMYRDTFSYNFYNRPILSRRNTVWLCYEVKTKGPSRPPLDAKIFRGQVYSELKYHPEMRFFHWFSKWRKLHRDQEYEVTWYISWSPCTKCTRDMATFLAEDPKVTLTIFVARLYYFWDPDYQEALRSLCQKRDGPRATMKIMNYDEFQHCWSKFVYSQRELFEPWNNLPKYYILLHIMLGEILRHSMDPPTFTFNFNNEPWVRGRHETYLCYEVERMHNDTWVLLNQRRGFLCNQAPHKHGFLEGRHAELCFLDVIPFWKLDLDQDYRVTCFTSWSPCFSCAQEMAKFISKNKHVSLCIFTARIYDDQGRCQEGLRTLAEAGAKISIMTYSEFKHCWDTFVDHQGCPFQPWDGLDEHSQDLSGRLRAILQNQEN

[20] = biological target: DNA dC->dU-editing enzyme APOBEC-3A (Homo sapiens, UniProt P31941); test: Dose Response confirmation of small molecule APOBEC3A DNA Deaminase Inhibitors via a fluorescence-based single-stranded DNA deaminase assay. [Related pubchem assays (depositor defined):AID493011, AID493024]; type: functional
DNA dC->dU-editing enzyme APOBEC-3A, sequence (P31941 whole entry): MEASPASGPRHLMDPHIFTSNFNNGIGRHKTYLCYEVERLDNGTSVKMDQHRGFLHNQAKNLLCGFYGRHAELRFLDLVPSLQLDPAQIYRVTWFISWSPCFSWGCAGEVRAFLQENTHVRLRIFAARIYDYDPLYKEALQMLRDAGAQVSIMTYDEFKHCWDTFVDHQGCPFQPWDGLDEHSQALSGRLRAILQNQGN

[21] = biological target: T5, Heat shock factor protein 1 (Mus musculus, UniProt P38532); test: HSF1 potentiators in luciferase reporter cells, confirmation, cell-based, NIH3T3, luminescence, dose retest (AID 435004); type: functional;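 note: stress induced by proteasome inhibitor MG132 added 30 min after compound; luciferase reporter driven by HSF1 response element in NIH3T3 cells; actives raise luminescence as potentiators of the MG132 stress response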
T5 sequence (P38532 whole entry): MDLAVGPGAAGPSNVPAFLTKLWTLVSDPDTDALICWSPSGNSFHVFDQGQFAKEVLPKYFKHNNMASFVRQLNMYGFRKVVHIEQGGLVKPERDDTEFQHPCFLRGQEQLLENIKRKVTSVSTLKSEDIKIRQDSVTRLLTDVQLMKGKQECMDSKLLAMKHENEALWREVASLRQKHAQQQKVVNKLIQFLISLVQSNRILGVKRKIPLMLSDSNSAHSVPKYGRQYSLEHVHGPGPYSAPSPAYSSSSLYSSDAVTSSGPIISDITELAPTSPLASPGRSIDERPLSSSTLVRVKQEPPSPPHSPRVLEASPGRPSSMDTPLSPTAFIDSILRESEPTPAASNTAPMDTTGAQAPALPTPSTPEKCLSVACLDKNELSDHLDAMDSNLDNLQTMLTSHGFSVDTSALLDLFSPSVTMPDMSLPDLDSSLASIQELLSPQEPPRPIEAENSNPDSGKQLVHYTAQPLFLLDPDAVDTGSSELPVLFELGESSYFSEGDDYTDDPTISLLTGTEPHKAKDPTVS

Troponin, cardiac muscle = Troponin, cardiac muscle (Homo sapiens, UniProt P19429+P45379+P63316); test: Fluorescence-based biochemical high throughput dose response assay for activators of the calcium sensitivity of cardiac Regulated Thin Filaments (RTF). [Related pubchem assays (depositor defined):AID493008, AID493018, AID504382, AID504383]; type: protein-complex assay

COC(=O)Cc1ccc(NC(S)=NNC(=O)C2CC2)cc1
EC50 [1]: > 55.7 µM (not active) | EC50 [2]: > 55.7 µM (not active)

NS(=O)(=O)c1ccc2nc(NC(=O)Nc3ccc(F)cc3)sc2c1
IC50 [3]: > 43.8 µM (not active) | IC50 [4]: > 43.8 µM (not active)

CCc1ccc(-n2c(SCC(=O)N3Cc4ccccc4CC3C(=O)O)nnc2-c2ccncc2)cc1 (centres undefined)
EC50 [1]: > 55.7 µM (not active) | EC50 [2]: > 55.7 µM (not active)

O=C(O)c1ccc(Cl)cc1NC(=O)c1coc2ccccc12
IC50 (Hexokinase): > 25 µM (inactive)

O=c1/c(=C\c2cccc(O)c2)sc2nc(-c3ccccc3)c(-c3ccccc3)n12
EC50 (Streptokinase A): 4.22 µM (active) | EC50 [5]: 27.2 µM (inactive) | AC50 [6]: 2.59 µM (active) | EC50 (Streptococcus): 51.1 µM (active) | EC50 [7]: 3.01 µM (active)

CSc1ncccc1C(=O)OCCCC(=O)c1ccc(F)cc1
AC50 (HeLa): 91.9 µM (active)

CC(=O)Nc1cc(Cl)ccc1C(=O)O
IC50 (Hexokinase): > 25 µM (inactive)

C=C(C)C(=O)Nc1cccc(C2=NOC3(C2)C[C@@H](C(N)=O)N(C(=O)c2ccc(OC)cc2)C3)c1 (some centres undefined)
IC50 [8]: > 56.8 µM (not active) | IC50 [9]: > 50 µM (inactive) | IC50 (cells): 38.9 µM (active)

Cc1ccc(-n2ncc3c(N4CCN(c5ccccc5)CC4)ncnc32)c(C)c1
EC50 [5]: 9.82 µM (active) | EC50 [10]: 13.8 µM (active) | IC50 [11]: 29.6 µM (inactive) | AC50 [12]: 34.7 µM (active) | AC50 [13]: 16.5 µM (active) | AC50 [14]: 32.4 µM (active) | AC50 [15]: 14.4 µM (active) | EC50 [16]: 8.48 µM (active) | AC50 [17]: 17.7 µM (active) | AC50 [18]: 13.8 µM (active)

Cn1c(CNC(=O)c2ccco2)nnc1SCC(=O)N1c2ccccc2Sc2ccccc21
IC50 [19]: 5.8 µM (active) | IC50 [20]: 4 µM (active)

Cn1c(=O)c2c(nc(N/N=C/c3ccc(OC(=O)c4ccco4)cc3)n2Cc2ccc(F)cc2)n(C)c1=O
AC50 (HeLa): 43.7 µM (active) | EC50 [21]: 3.74 µM (active)

CC(C)Sc1nc2cc(Br)ccc2[nH]1
EC50 (Troponin, cardiac muscle): > 71.4 µM (inactive)

N#Cc1ccc(CSc2nnc(Cc3cccs3)n2Cc2ccco2)cc1
IC50 [3]: > 43.8 µM (not active) | IC50 [4]: 23 µM (not active)
